According to PubChem BioAssay AID720520 (The Scripps Research Institute Molecular Screening Center, 2013):

Key:
Experiment in all cases: TLR2, TLR4, TLR7/8 NFkB reporter inhibition, late-stage follow-up, selectivity assay for TLR9 inhibitor project, RAW264.7 cells, luminescence, powder samples (AID 720520); call rule not given here
[1] = tested on: TLR4; settings: RAW264.7 TLR2/4/7-8 NFkB-luciferase reporter, 6 h, with LPS 0.1 µg/mL
[2] = tested on: TLR7/8; settings: RAW264.7 TLR2/4/7-8 NFkB-luciferase reporter, 6 h, with R848 1 µg/mL
[3] = tested on: TLR2; settings: RAW264.7 TLR2/4/7-8 NFkB-luciferase reporter, 6 h, with MALP-2 50 ng/mL

Measured: IC50

COc1ccc(C[C@@H]2OC3(C=CC(=O)C=C3)O[C@H]2Cc2ccc(OC)cc2)cc1
active: [1] 72 nM | [2] 80 nM | [3] 58 nM

O=C1C=CC2(C=C1)O[C@H](Cc1ccccc1)[C@@H](Cc1ccccc1)O2
active: [1] 226 nM | [2] 245 nM | [3] 226 nM

O=S(=O)(/C=C/C=C/S(=O)(=O)c1ccccc1)c1ccccc1
active: [1] 126 nM | [2] 93 nM | [3] 126 nM
